Four compounds from patent US8138169B2, “Combination therapy for bipolar disorder” (ComgenRx, Inc., priority 2008, dated 2012) can be followed below.

This data set deals with patients with bipolar disorder. Nature of the data set: Side effects reported in patient case reports. The class given is in vivo, human.

Take `OCCOCCN1CCN(C2=Nc3ccccc3Sc3ccccc32)CC1` [Seroquel, quetiapine fumurate]: the “effect on blood sugar” value (Example 15: Seroquel given by their psychiatrist) is reported as “elevated their blood sugar”. Further, the sedation entry (Example 18: Seroquel 400 mg) was “excessive sedation in the AM”.

Regarding `[Li]` [lithium], the side effects entry was “intolerable side effects” (Example 7: lithium 300 mg tid, stopped); “tremulousness and stomach discomfort along with diarrhea” (Example 21: lithium 600 mg/day, improved at 300 mg).

As for `O=C1Cc2cc(CCN3CCN(c4nsc5ccccc45)CC3)c(Cl)cc2N1` [Geodon, ziprasidone], where the note is “Example 42: Geodon 80 mg/day, felt like crawling out of their skin”, the tolerability entry is “could not tolerate the Geodon”. Take `CN(C)CCOC(c1ccccc1)c1ccccc1` [Benadryl]: the akisthisia entry (Example 42: Benadryl 1x/day for akisthisia under Geodon) is given as “significant improvement”.
